US7071158B2, “Antioxidant enhancement of therapy for hyperproliferative conditions” (Atherogenics, Inc., priority 1997, dated 2006)

Columns and labels:
[1] = tested on: advanced, frequently mutant p53-containing colorectal cancer tumors; conditions: patients with advanced; cited from earlier work
[2] = tested on: HCT 116 CRC tumor xenografts; experiment: HCT 116 tumor xenografts in athymic mice; format: in vivo; conditions: for tumor volume compared to saline-treated controls: single agents, 6 weeks
Experimental: HCT 116 CRC cells were injected subcutaneously between the scapula of nu/nu mice. Once tumors reached approximately 150 mm^3, the animals either received weekly i.p. injections of pyrrolidinedithiocarbamate (70 μM) or vitamin E (3 MM), 5-FU (40 mg/kg) or saline, or both an antioxidant and 5-FU. Tumor volume was calculated weekly.
(§5) Male athymic Balb/c nu/nu mice were obtained from the Harlan Sprague-Dawley Company at 4–6 weeks of age and were quarantined for at least 2 weeks before the study. […] HCT 116 and HCT 15 CRC cell lines were grown in DMEM supplemented with 10% FBS as described above. Cells were harvested through two consecutive trypsinizations, centrifuged at 300 g for 5 minutes, washed twice, and resuspended in sterile phosphate buffered saline. One ×10^6 cells in 0.2 ml were injected subcutaneously between the scapula of 7- to 10-week-old male nude mice.
(§6) Tumor volumes were estimated weekly by measuring the maximal length, width, and height. Once tumors reached a mean size of 120 to 150 mm^3, animals received either weekly i.p. injections of pyrrolidinedithiocarbamate (70 μM) or vitamin E (3 mM), 5-FU (40 mg/kg) or saline, or a combination of pyrrolidinedithiocarbamate or vitamin E and 5-FU or 6 weeks. In cross-over experiments, animals received the above treatments for three weeks (with the exception of vitamin E), and then were crossed-over to either the combination treatment of pyrrolidinedithiocarbamate and 5-FU (saline, pyrrolidinedithiocarbamate or 5-FU alone) or discontinued treatment pyrrolidinedithiocarbamate and 5-FU) for the remaining three weeks of the experiment. […] Tumor volumes were recorded weekly until termination of the study.
Tumor tissues were fixed overnight in 4% (v/v) paraformaldehyde and embedded in paraffin according to standard histological procedures. […] TdT labeling of fragmented DNA (TUNEL) was performed as described. The proliferative index (BrDU) and the apoptotic index (TUNEL) were estimated by the percentage of cells scored under a microscope at 200-fold magnification.

HCT 15 cells [3] = experiment: Apoptotic index (TUNEL) with or without induced C/EBPβ overexpression; format: cell-based, human; conditions: 5-FU 1.5 μM or doxorubicin 0.1 μM, 24 hours
Experimental: Control HCT 15 cells and the sense C/EBPβ cell line were induced with 10 μM muristerone A and exposed to either 5-FU (1.5 μM) or doxorubicin (0.1 μM) for 24 hours. The apoptotic index was calculated as described in FIG. 4C.
Finally, the functional role of C/EBPβ was examined in the apoptotic signaling pathway by generating lines of HCT 15 cells that were stably transfected with the human C/EBPβ cDNA, in both the sense and antisense orientation, under the control of an ecdysone inducible promoter. To avoid the possibility that constitutively expressed C/EBPβ might induce cell death, and ecdysone (muristerone A)-inducible expression system (Invitrogen, Carlsbad, Calif.) was used. Human C/EBPβ cDNA was subcloned into pIND at convenient enzyme cleavage ites. Constructs, containing sense and antisense C/EBPβ sequences were verified by double-stranded DNA sequencing. Before transfection, pIND-C/EBPβ constructs were linearized with Pme I and purified. HCT 15 cells were transfected with 5 μg of pVgRXR (Invitrogen) and 10 μg of pIND-C/EBPβ using CELLFECTIN according to manufacture's instructions. After 24 hours, cells were shifted to medium supplemented with 1 mg/ml Geneticin and […] puromycin (GIBCO BRL) to select for transfectant clones. After 2 weeks, antibiotic-resistant cells were subcloned by limiting dilution. The expression of C/EBPβ protein and the subsequent induction of p21^WAF1/CIP1 was determined following induction with 10 μM muristerone A for 24 hours and Western blot analysis.

HCT 15-derived tumors = experiment: HCT 15 tumor xenografts in athymic mice; format: in vivo
Experimental: HCT 15-derived tumors were generated as described above. Animals were then treated with pyrrolidinedithiocarbamate, in the presence or absence of 5-FU, for 3 weeks. At this point, treatments were discontinued in animals receiving the combined treatment of pyrrolidinedithiocarbamate and 5-FU for 2 months. All other treatment groups received both 5-FU and pyrrolidinedithiocarbamate for the remaining 3 weeks.
as §5, §6
Tumor tissues were fixed overnight in 4% (v/v) paraformaldehyde and embedded in paraffin according to standard histological procedures. […] The proliferative index (BrDU) and the apoptotic index (TUNEL) were estimated by the percentage of cells scored under a microscope at 200-fold magnification.

HCT 116 cells = experiment: Soft-agar colony formation (anchorage-independent growth)
Experimental: (§1) FIG. 1A is a graph of the concentration of PDTC versus soft-agar forming units×10^6 HCT 15 and HCT 116 cells (as a percent of control). […] Soft-agar colony formation was measured by seeding HCT 116 or HCT 15 cells in soft agar supplemented with either medium alone (control), or increasing concentrations of pyrrolidinedithiocarbamate (25–200 μM) or vitamin E (0.1–10 mM). Colonies were scored at the end of 10 days incubation at 37° C. Values are representative of three experiments carried out in quadruplicate.
(§2) HCT 116 and HCT 15 cells were seeded in soft agar as described above containing increasing concentrations of either 5-FU (5×10^−8 to 5×10^−5 M) or doxorubicin (1×10^−9 to 1×10^−6 M), in the presence or absence of pyrrolidinedithiocarbamate (70 μM) or vitamin E (3 mM). Colonies were scored after 10 days and IC50 values were calculated as the concentration of 5-FU or doxorubicin required to reduce basal colony formation by 50% (±s.e.m.). Values are representative of three experiments carried out in quadruplicate.

HCT 15 cells [4] = experiment: as above
Experimental: as §1, §2

CRC cell = CRC cell plating efficiency; format: cell-based, human; conditions: 25–200 μM (pyrrolidinedithiocarbamate) and 0.1–10 mM (vitamin E), preliminary studies
endogenous H2O2 = experiment: Intracellular H2O2 levels by flow cytometry with dihydrorhodamine; format: cell-based, human; conditions: up to 24 hours
Experimental: FIG. 1C is a bar graph of the hours after test compound treatment versus intracellular H2O2 levels. FIG. 1C illustrates the negative association between intracellular redox status and cell cycle perturbations. Changes in the intracellular redox status were determined by the measurement of endogenous H2O2 levels. Background fluorescence was subtracted from each reading. Values are expressed as corrected DHR mean per 10^4 cells±s.e.m. The percentage of G1 (circle) or apoptotic (TUNEL-positive: square) cells by flow cytometric analysis.
HCT 15 cells were incubated with pyrrolidinedithiocarbamate (70 μM), vitamin E (3 mM), N-acetylcysteine (50 μM) or vitamin C (200 μM) for 24 hours. Endogenous H2O2 levels and cell cycle changes were measured as described in FIG. 1C. […] Values from cells transfected with the empty plasmid were subtracted from those obtained from the catalase-containing cells and were expressed as mean±s.e.m. from duplicate dishes.
Intracellular H2O2 levels were analyzed by flow cytometry using […] (DHR) as a specific fluorescent dye probe [G. Rothe, A. Emmendorffer, A. Oser, J. Roesler, G. Valet, J Immun. […] Cellular rhodamine 123 fluorescence intensity of 1×10^4 cells was measured for each sample using a Becton-Dickenson FACS Vantage flow cytometer with the excitation source at 488 nm and emission wave length of 580 nm. […]

HCT 116 CRC cells = experiment: Flow cytometric cell cycle analysis (propidium iodide); format: cell-based, human; conditions: HCT 116, pyrrolidinedithiocarbamate 70 μM or vitamin E 3 mM, 24 hours
Experimental: (§3) FIG. 1B is a series of flow cytometric analyses that indicate that antioxidants induce G1 cell cycle arrest and apoptosis in CRC cells. […] Twenty-four hours following antioxidant exposure, cells were harvested and flow cytometric analysis performed.
(§4) DNA Content of nuclei was determined as described [I. G. Nicoletti et al., J Immunol. Methods. 139, 271 (1991)] by lysing plasma membranes, staining nuclear DNA with propidium iodide ([…]), and quantitating the relative DNA content of nuclei using the Becton Dickinson FACSORT fluorescence-activated cell sorter. The proportion of nuclei in each phase of the cell cycle was determined using MODFIT-DNA analysis software. Detection of apoptotic cells either by fluorescence microscopy or by flow cytometry was performed using the ApopTag Plus In Situ Apoptosis Detection Kit (Oncor, Gaithersburg, Md.) as described in the manufacturer's protocol. Briefly, gigoxygenin-labeled nucleotides were added to free 3′OH groups of DNA produced by DNA fragmentation during apoptosis by terminal deoxynucleotidyl transferase (TdT). Digoxygenin was detected by a FTC-conjugated anti-digoxygenin antibody. Analysis was carried out using the fluorescence-activated cell sorter and FITC staining visualized using a fluorescence microscope (Zeiss). […]

HCT 15 CRC cells = experiment: as above; format: cell-based, human; conditions: HCT 15, pyrrolidinedithiocarbamate 70 μM or vitamin E 3 mM, 24 hours
Experimental: as §3, §4

rats = conditions: intravenously; cited from earlier work
PP2A = experiment: Dephosphorylation of radiolabeled C/EBPβ in DKO-1 lysates; format: biochemical, human; conditions: DKO-1 cell lysates (cells treated with 17 μM PDTC for three hours), ten minutes at 37 degrees C
Experimental: FIG. 13 is a graph of time in hours versus percent radioactivity remaining on the protein substrate. […] The activity of PDTC is compared to I2 (a selective PP1 inhibitor), okadaic acid (an inhibitor of both PP2A and PP1), I2 and PDTC, and okadaic acid and PDTC. DKO-1 cells were grown in the presence of PDTC (test) or not (control). The cells were lysed, and then radioactive phosphorylated C/EBPβ was added. The test compounds were then added, and incubated with the lysate. The protein was collected and the amount of radioactive phosphate remaining in the protein measured.
Cell lysates were prepared and treated with the following reagents in the presence of phosphorylated C/EBPβ in which the phosphate is radiolabeled, for ten minutes at 37 degrees C: I2 (a selective PP1 inhibitor), okadaic acid (a selective inhibitor of PP2A and PP1), PDTC, I2 and PDTC, and okadaic acid and PDTC. […] This effect is reversible following removal of the antioxidant.

[5] = HCT 116 xenografts, weekly i.p. injections
[6] = HCT 15 cells induced to overexpress C/EBPβ
[7] = HCT 15 cells, absence of C/EBPβ overexpression

In the case of `O=c1[nH]cc(F)c(=O)[nH]1` [5-FU, 5-fluorouracil], the success rate [1] is given as 15–20%, the “tumor volume compared to saline-treated controls” value [2, 5] is given as “significantly reduced tumor volume” and the apoptotic index (HCT 15 cells [3]; [6]) is given as 70%. For the same molecule, the apoptotic index (HCT 15 cells [3]; [7]) was 20% and the tumor size (HCT 15-derived tumors; HCT 15-derived tumors, after 3 weeks of single agent treatment, before cross-over) was 1864+190 mm^3.

For `Cc1c(C)c2c(c(C)c1O)CCC(C)(C(=O)O)O2` (stereo not shown) [6-hydroxy-2.5,7,8-tetramethylchroman-2-carboxylic acid], the “effect on the IC50 of 5-FU and doxorubicin” value (HCT 116 cells) was “decreased the IC50 for both 5-FU and doxorubicin”, the anchorage-independent growth (HCT 116 cells; HCT 116 cells, increasing amounts (25–200 μM pyrrolidinedithiocarbamate, 0.1–10 mM vitamin E)) was “dose-dependent reduction in anchorage-independent growth” and the IC50 (HCT 116 cells; read-out: approximate IC50 in soft agar, HCT 116 cells, soft agar, 10 days) was ~3000 µM. The “effect on the IC50 of 5-FU and doxorubicin” value (HCT 15 cells [4]) was “decreased the IC50 for both 5-FU and doxorubicin”, the anchorage-independent growth (HCT 15 cells [4]; HCT 15 cells, increasing amounts (25–200 μM pyrrolidinedithiocarbamate, 0.1–10 mM vitamin E)) was “dose-dependent reduction in anchorage-independent growth” and the IC50 (HCT 15 cells [4]; read-out: approximate IC50 in soft agar, HCT 15 cells, soft agar, 10 days) was ~3000 µM. For the same molecule, the “CRC cell plating efficiency” value (CRC cell) was “no significant effect on CRC cell plating efficiency”, the “endogenous H2O2 levels” value (endogenous H2O2; HCT 15 cells, N-acetylcysteine 50 μM, vitamin C 200 μM) was “significantly reduced endogenous H2O2 levels” and the “endogenous H2O2 levels” value (endogenous H2O2; HCT 116 cells) was “significantly reduced endogenous H2O2 levels”. For the same molecule, the “accumulation of cells in the G1 peak” value (HCT 116 CRC cells) was “induced a significant accumulation of cells in the G1 peak”, the “accumulation of cells in the G1 peak” value (HCT 15 CRC cells) was “induced a significant accumulation of cells in the G1 peak” and the “increase of apoptotic index (TUNEL) of residual tumors” value ([2]; HCT 116 xenograft model) was “approximately 5 fold”. The “effect of adding the antioxidant to 5-FU on tumor volume” value ([2]; HCT 116 xenografts, weekly i.p. injections, combined with 5-FU (40 mg/kg)) was “significantly enhanced the effect of 5-FU”, the “tumor volume compared to saline-treated controls” value [2, 5] was “significantly reduced tumor volume” and the “increase of apoptotic index (TUNEL) of residual tumors” value (HCT 15-derived tumors; HCT 15 xenograft model) was “approximately 5 fold”.

In the case of `CC(=O)N[C@@H](CS)C(=O)O` [N-acetylcysteine, acetamido-mercaptopropionic acid], the LD50 (rats) is given as 1140 mg/kg.

For `COc1cccc2c1C(=O)c1c(O)c3c(c(O)c1C2=O)C[C@@](O)(C(=O)CO)C[C@@H]3O[C@H]1C[C@H](N)[C@H](O)[C@H](C)O1` [doxorubicin], the apoptotic index (HCT 15 cells [3]; [6]) was 80% and the apoptotic index (HCT 15 cells [3]; [7]) was “did not induce apoptosis”.

In the case of `C=C1[C@@H](O)[C@@H]2O[C@]3(CC[C@H](/C=C/[C@@H](C)[C@@H]4CC(C)=C[C@@]5(O[C@H](C[C@@](C)(O)C(=O)O)CC[C@H]5O)O4)O3)CC[C@H]2O[C@@H]1[C@@H](O)C[C@H](C)[C@H]1O[C@@]2(CCCCO2)CC[C@H]1C` [okadaic acid, reference compound], the “phosphatase activity toward phosphorylated C/EBPβ” value (PP2A) is reported as “inhibited all DKO-1 phosphatase activity”.

B1: I2: a selective PP1 inhibitor (protein, UniProt P41236 2-205, looked up)
Protein phosphatase inhibitor …: AASTASHRPIKGILKNKTSTTSSMVASAEQPRGNVDEELSKKSQKWDEMNILATYHPADKDYGLMKIDEPSTPYHSMMGDDEDACSDTEATEAMAPDILARKLAAAEGLEPKYRIQEQESSGEEDSDLSPEEREKKRQFEMKRKLHYNEGLNIKLARQLISKDLHDDDEDEEMLETADGESMNTEESNQGSTPSDQQQNKLRSS
With B1 the “phosphatase activity toward phosphorylated C/EBPβ” value (PP2A) was “failed to protect C/EBPβ from dephosphorylation”.
